In patent US20060024392A1, “Compositions and methods for enhancing the effectiveness of a chemotherapeutic agent” (priority 2004, published 2006):

How the values were obtained:
HT29 colon cancer cells = experiment: Sulforhodamine B (SRB) cell growth assay in HT29 colon cancer cells; assay type: cell-based
Method: HT-29, a cell line derived from colorectal adenocarcinoma (ATCC, HTB 38), grows in McCoy's 5A medium (Biowhittaker, Inc. Walkersville, Md.). NCM460, a cell line derived from a normal human colon (InCell Corp. San Antonio, Tex.), grows in M3 Base media (InCell Corp. San Antonio, Tex.).
Both cell lines are kept at 37° C. and 5% CO2 atmosphere. Both media are supplemented with 10% fetal bovine serum (FBS, Biowhittaker, Inc. Walkersville, Md.).
Cells are fixed in situ by the gentle addition of 50 μl of cold 50% (w/v) TCA (final concentration, 10% TCA) and incubated for 60 minutes at 4° C. The supernatant is discarded, and the plates are washed five times with tap water and air dried. Sulforhodamine B (SRB) solution (100 μl) at 0.4% (w/v) in 1% acetic acid is added to each well, and plates are incubated for 10 minutes at room temperature. After staining, unbound dye is removed by washing five times with 1% acetic acid and the plates are air dried. Bound stain is subsequently solubilized with 100 μl 10 mM trizma base for 5 minutes, and the absorbance at wavelength of 490 nm was spectrophotometrically measured using a microplate reader Elx800 (Bio-Tek instruments, Inc.).
Cells were seeded in 96-well cluster tissue culture plates (Costar), containing 100 μl complete growth medium per well at densities of 5,000 cells per well. Incubated at 37° C. in a humidified tissue culture incubator. After 24 Hour, 100 μl complete medium containing 5 half-log dilutions of the 5FU from 2*10^−4 to 2*10^−6 M was added into each well (final concentrations are from 10^−4 to 10^−6 M). Six replicates were used for each concentration. Media containing 0.125% DMSO was used as control. After 48 hours of incubation with 5FU in medium, cell proliferation was assessed using the SRB assay.
Percentage growth (Growth%) is calculated as: [(Ti−Tz)/(C−Tz)]×100 [absorbance measurements at time zero (Tz), control growth (C), and test growth in the presence of drug at the different concentration levels (Ti)].
Similar to the method used in testing GI50 of 5FU: HT29 was plated at 5000 cells per well. […] After 48 hour treatment, cell growth was assessed using SRB assay.
The protocol was the same as described above, except cells were exposed to 5FU at concentration ranging from 10^−4 to 10^−6 M with chokeberry ARE at concentration of 1.56, 5, 15.6, 50 μg monomeric anthocyanin/ml growth media.
The protocol was the similar to Experiment 1: Cells were exposed to half-log diluted SAC at concentration ranging from 3.2 to 1000 μM for 48 hour. Media containing 0.5% filtered water was used as control.
This experiment was to determine whether the antioxidant, SAC would enhance the effect of 5FU in HT29 cells. The protocol was the same as Experiment 3, except cells were exposed to 5FU at concentration ranging from 10^−4 to 10^−6 M with SAC at concentration of 10, 100, 1000 μM.

colon cancer = details: clinical treatment of colon cancer; cited from earlier work
[1] = rats, 72 hours after 200 mg/kg 5FU i.p., AIN93 diet with or without 4 g anthocyanin/kg
[2] = 5FU 1.0E−4 M, 48 h, experiment 1
[3] = 5FU 1.0E−4 M, 48 h, experiment 2
[4] = 5FU 1.0E−4 M, 48 h, experiment 3
[5] = 5FU 1.0E−4 M, 48 h, experiment 4
[6] = 5FU 1.0E−4.5 M, 48 h, experiment 1
[7] = 5FU 1.0E−4.5 M, 48 h, experiment 2
[8] = 5FU 1.0E−4.5 M, 48 h, experiment 3
[9] = 5FU 1.0E−4.5 M, 48 h, experiment 4
[10] = 5FU 1.0E−5 M, 48 h, experiment 1
[11] = 5FU 1.0E−5 M, 48 h, experiment 2
[12] = 5FU 1.0E−5 M, 48 h, experiment 3
[13] = 5FU 1.0E−5 M, 48 h, experiment 4
[14] = 5FU 1.0E−5.5 M, 48 h, experiment 1
[15] = 5FU 1.0E−5.5 M, 48 h, experiment 2
[16] = 5FU 1.0E−5.5 M, 48 h, experiment 3
[17] = 5FU 1.0E−5.5 M, 48 h, experiment 4
[18] = 5FU 1.0E−6 M, 48 h, experiment 1
[19] = 5FU 1.0E−6 M, 48 h, experiment 2
[20] = 5FU 1.0E−6 M, 48 h, experiment 3
[21] = 5FU 1.0E−6 M, 48 h, experiment 4
[22] = Table 2: 5FU at 1.0E-4.368 M alone, 48 h
[23] = Table 6 (1): 5FU 1.00E−04 M, SAC 0
[24] = Table 6 (1): 5FU 1.00E−05 M, SAC 0
[25] = Table 6 (1): 5FU 1.00E−06 M, SAC 0
[26] = Table 6 (2): 5FU 1.00E−04 M, SAC 0
[27] = Table 6 (2): 5FU 1.00E−05 M, SAC 0
[28] = Table 6 (2): 5FU 1.00E−06 M, SAC 0

From the text for male Sprague Dawley rats: The purpose of this experiment was to determine if the toxicity of 5FU would be decreased by feeding rats a diet supplemented with anthocyanin-rich extract (ARE) prior to and during 5FU treatment.
Rats were randomly allocated in two diet groups and maintained for two weeks on either AIN93 or AIN93 plus 4 g anthocyanin/kg (Table 7).
Seventy-two hours after the 5FU injections, rats were euthanized by CO2 inhalation. Blood was collected by heart puncture into heparinized tubes, the stomach and entire intestines were removed and stomach, duodenum, jejunum, ileum, cecum and colon sections were fixed in formalin for histopathological evaluation. In addition to the gastrointestinal tract, the following organs were also collected at necropsy for histopathological evaluation: heart, liver, kidney, spleen and bone marrow. These tissues were also fixed in formalin. All tissues were then routinely processed and stained with H&E for pathological evaluation.

Q: Which results are given for `O=c1[nH]cc(F)c(=O)[nH]1` [5FU, 5-fluorouracil]?
A: clinical signs in preliminary experiment (male Sprague Dawley rats; 2 rats, 5FU 200 mg/kg): caused weight loss and diarrhea; bone marrow histopathology (male Sprague Dawley rats; [1]): panmyelophthisis of the bone marrow with congestion; kidney histopathology (male Sprague Dawley rats; [1]): acute toxic nephropathy of the proximal convoluted tubules was present in all 5FU treated animals in mild to moderate severity; small intestine histopathology (male Sprague Dawley rats; [1]): intestinal villi were moderately to severely denuded; overall histopathological changes in tissues (male Sprague Dawley rats; rats, 5FU 200 mg/kg i.p. or AIN93 plus 4 g anthocyanin/kg diet with saline): significant acute toxicological changes; Growth % (HT29 colon cancer cells; [2]): 48.88%; OD (HT29 colon cancer cells; [2]): 0.30; Growth % (HT29 colon cancer cells; [3]): 34.83%; OD (HT29 colon cancer cells; [3]): 0.25; Growth % (HT29 colon cancer cells; [4]): 37.16%; OD (HT29 colon cancer cells; [4]): 0.26; Growth % (HT29 colon cancer cells; [5]): 42.91%; OD (HT29 colon cancer cells; [5]): 0.25; Growth % (HT29 colon cancer cells; [6]): 54.63%; OD (HT29 colon cancer cells; [6]): 0.32; Growth % (HT29 colon cancer cells; [7]): 44.48%; OD (HT29 colon cancer cells; [7]): 0.27; Growth % (HT29 colon cancer cells; [8]): 43.58%; OD (HT29 colon cancer cells; [8]): 0.27; Growth % (HT29 colon cancer cells; [9]): 53.85%; OD (HT29 colon cancer cells; [9]): 0.27; Growth % (HT29 colon cancer cells; [10]): 60.38%; OD (HT29 colon cancer cells; [10]): 0.33; Growth % (HT29 colon cancer cells; [11]): 57.93%; OD (HT29 colon cancer cells; [11]): 0.31; Growth % (HT29 colon cancer cells; [12]): 56.76%; OD (HT29 colon cancer cells; [12]): 0.31; Growth % (HT29 colon cancer cells; [13]): 70.85%; OD (HT29 colon cancer cells; [13]): 0.32; Growth % (HT29 colon cancer cells; [14]): 82.11%; OD (HT29 colon cancer cells; [14]): 0.40; Growth % (HT29 colon cancer cells; [15]): 77.24%; OD (HT29 colon cancer cells; [15]): 0.37; Growth % (HT29 colon cancer cells; [16]): 76.69%; OD (HT29 colon cancer cells; [16]): 0.37; Growth % (HT29 colon cancer cells; [17]): 87.85%; OD (HT29 colon cancer cells; [17]): 0.36; Growth % (HT29 colon cancer cells; [18]): 94.25%; OD (HT29 colon cancer cells; [18]): 0.44; Growth % (HT29 colon cancer cells; [19]): 94.83%; OD (HT29 colon cancer cells; [19]): 0.42; Growth % (HT29 colon cancer cells; [20]): 88.51%; OD (HT29 colon cancer cells; [20]): 0.41; Growth % (HT29 colon cancer cells; [21]): 96.36%; OD (HT29 colon cancer cells; [21]): 0.38; growth inhibition (HT29 colon cancer cells; 5FU alone at GI50 concentration (FIG. 1)): 65%; Growth % (HT29 colon cancer cells; [22]): 35.02%; OD (HT29 colon cancer cells; [22]): 0.22; Growth % (HT29 colon cancer cells; Table 3: 5FU 1.0E−4 M, ARE 0): 29.77%; OD (HT29 colon cancer cells; Table 3: 5FU 1.0E−4 M, ARE 0): 0.20; Growth % (HT29 colon cancer cells; Table 3: 5FU 1.0E−5 M, ARE 0): 49.30%; OD (HT29 colon cancer cells; Table 3: 5FU 1.0E−5 M, ARE 0): 0.24; Growth % (HT29 colon cancer cells; Table 3: 5FU 1.0E−6 M, ARE 0): 82.33%; OD (HT29 colon cancer cells; Table 3: 5FU 1.0E−6 M, ARE 0): 0.31; Growth % (HT29 colon cancer cells; [23]): 27.44%; OD (HT29 colon cancer cells; [23]): 0.175; Growth % (HT29 colon cancer cells; [24]): 52.09%; OD (HT29 colon cancer cells; [24]): 0.228; Growth % (HT29 colon cancer cells; [25]): 91.63%; OD (HT29 colon cancer cells; [25]): 0.313; Growth % (HT29 colon cancer cells; [26]): 26.16%; OD (HT29 colon cancer cells; [26]): 0.178; Growth % (HT29 colon cancer cells; [27]): 43.46%; OD (HT29 colon cancer cells; [27]): 0.219; Growth % (HT29 colon cancer cells; [28]): 79.32%; OD (HT29 colon cancer cells; [28]): 0.304; growth of cells, % of control (HT29 colon cancer cells; highest concentration of 5FU alone): 30 % of control; growth of cells, % of control (HT29 colon cancer cells; intermediate concentration of 5FU alone): 50 % of control; growth of cells, % of control (HT29 colon cancer cells; lowest concentration of 5FU (10^−6 M) alone): 80 % of control; response rate (colon cancer): 20%
